# Measurements from publication PMC8686256, “DZNep promotes mouse bone defect healing via enhancing both osteogenesis and osteoclastogenesis” (Stem Cell Research & Therapy, 2021).
# Columns and labels:
# Format in all cases: cell-based, mouse
# [1] = test system: BMMs and calvarial OB co-culture; assay: Osteoblasts and osteoclasts co-cultivation, ALP staining; details: 7 days
# Description: For the osteoblasts and osteoclasts co-culture system, calvarial OB isolated from day 1–3 pups were cultured for 24 h. Then the calvarial OB with complete α-MEM (α-MEM supplemented with 10% FBS, 1% penicillin/streptomycin) were seeded into 24-well plates at a density of 2 × 10^4 cells/well. After 3 days of cultivation, the medium was replaced by the complete α-MEM containing […] ascorbic acid and 5 mM β-glycerophosphate. On the same day, bone marrow monocytes were isolated from bone marrow and cultured in 10-cm dish. Another 3 days later, BMMs were seeded at a density of 4 × 10^4 cells/well into the 24-well plate containing the calvarial OB, and the α-MEM supplemented with 15% FBS, 1% penicillin/streptomycin, 1, 25-dihydroxy vitamin D3 (10 nM; CSN), and PGE2 (1 μM; CSN). After changed every 3 days for 2 times of the culture medium, the cells were then fixed and stained to observe the percent of the positive ALP staining area using a kit according to the manufacturer’s instructions (Beyotime, Shanghai, China). The percent of area was then quantified using ImageJ.
# BMMs = assay: RANKL-induced osteoclast differentiation, TRAP staining
# Description: To evaluate the role of DZNep on osteoclastogenesis, BMMs were seeded into, in triplicate, a 96-well plate at the density of 8 × 10^3 cells/well with complete α-MEM for one day. Afterward, the culture medium was replaced by the complete α-MEM containing different concentrations of DZNep (control, 3.125, 6.25, 12.5, and 25 nM) and RANKL (50 ng/ml) to stimulate osteoclast differentiation. Cells untreated with DZNep were included as the control group. Moreover, the BMMs treated with or without DZNep for various days were also analyzed. For EZH2 gene knockdown studies, the cells were transfected with virus constructed of different EZH2 short hairpin RNA (shRNA) and negative control shRNA by mixed with polybrene (final concentration of 10ug/ml) for 48 h. The transfection mixture was then replaced by complete α-MEM added with puromycin for 24 h, and BMMs were then seeded into a 96-well plate at the density of 1 × 10^4 cells/well with complete α-MEM. The culture medium was then replaced every 2 days until the matured osteoclasts could be observed in the plate. For Foxc1 inhibition experiment, the cells were separately transfected with negative control siRNA, negative control siRNA with DZNep, and Foxc1 small interfering RNA (siRNA) with DZNep and by mixed with transfection reagent and osteoclast culture medium. The transfection mixture was then replaced every 2 days until the matured osteoclasts could be observed in the plate. The plate was then washed by PBS 1 times and fixed with 4% paraformaldehyde for 15 min. TRAP staining was performed immediately without light at 37 °C for 30 min. An optical microscope (Olympus, Tokyo, Japan) was used to image the photographs, and the TRAP-positive cells with more than three nuclei were considered osteoclasts and were quantified the area and number using the ImageJ software (NIH, Bethesda, MD, USA).
# primary BMSC = assay: Osteoblast differentiation and mineralization, ALP and Alizarin red staining
# Description: Primary BMSC were obtained from the whole bone marrow of male 4-week-old C57BL/6 mice. In brief, cells were extracted from the tibiae and femurs bone marrow and suspended in α-MEM supple with 10% FBS, and 1% penicillin/streptomycin. Then, the cell cultures were kept in a humid environment at 37 °C with 5% CO2 until they reached 90% confluence. For further identifying the effect of DZNep on osteogenesis, bone marrow-derived mouse mesenchymal stem cells were firstly seeded into the 48-well plates for one day at a density of 5 × 10^4 cells/well. Then the medium was changed by low-glucose DMEM with 15% FBS, 5 mM β-glycerophosphate, 50 µg/mL ascorbic acid, 10-7 mM dexamethasone, and various concentrations of DZNep (0, 12.5, 25, 50, and 100 nM). The medium was changed twice a week. For EZH2 gene knockdown studies, the cells were transfected with virus constructed of different EZH2 short hairpin RNA (shRNA) and negative control shRNA by mixed with polybrene (final concentration of 10ug/ml) for 48 h. The transfection mixture was then replaced by complete α-MEM added with puromycin for 24 h, and BMSCs were then seeded into a 48-well plate at the density of 5 × 10^4 cells/well with complete α-MEM for 24 h. The culture medium was then replaced by low-glucose DMEM with 15% FBS, 5 mM β-glycerophosphate, 50 µg/mL ascorbic acid, 10-7 mM dexamethasone. The medium was changed twice a week. […]
# [2] = RANKL, M-CSF, DZNep ≤25 nM, 5 days, vs control
smiles,measurement,setting,value
"Nc1nccc2c1ncn2C1C=C(CO)C(O)C1O (stereo not drawn) [DZNep, 3-Deazaneplanocin]",osteogenesis in co-culture system (ALP),[1],still preserves the effect of promoting osteogenesis
same,"number of osteoclasts, treatment at specific time points","BMMs; 25 nM, day 3–5, vs control",increased the number of osteoclasts at the middle stage
same,number of mature osteoclast nuclei,BMMs; [2],increased in a dose-dependent manner significantly
same,number of mature osteoclasts,BMMs; [2],increased the number of mature osteoclasts in a DZNep dose-dependent manner
same,osteoblast differentiation (ALP staining),"primary BMSC; 7 days, especially 50 nM",promoted
same,osteoblast mineralization (Alizarin red staining),primary BMSC; 28 days,enhanced in a dose-dependent manner
